In US20240360157A1, “TYK2 INHIBITORS” (BIOGEN MA INC., priority 2021, published 2024) one finds IC50 data, which are given here for 22 molecules.

One may read the IC50 as the concentration needed to halve the response being measured.

Common to all, as to assay type: biochemical
Experiment [1] has as its target human JAK3 catalytic kinase (JH1) domain (Homo sapiens (Human), UniProt P52333). The experiment can be described thus: ADP-Glo Kinase Assay, recombinant JAK3 catalytic kinase (JH1) domain. Conditions: recombinant JH1 domain 0.3 nM, 4 μM ATP, JAK3-974 peptide, mean, read-out: JAK3 biochem IC50 (nM) Mean. A digest of the protocol:
(§1)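 ADP-Glo luminescence with 50 μM peptide and 100 min reactions: JAK1 4 nM with JAK3-342 peptide; JAK2, JAK3 and TYK2 at 0.2, 0.3 and 2 nM with JAK3-974 peptide. Compounds tested from 10 or 1 μM top, 11 points, 3-fold. IC50 from a 4-parameter logistic fit of normalized activity.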
(In general: In ADP-Glo the light output rises with the ADP produced.)

Experiment [2] has as its target human JAK2 catalytic kinase (JH1) domain (Homo sapiens (Human), UniProt O60674). The experiment can be described thus: ADP-Glo Kinase Assay, recombinant JAK2 catalytic kinase (JH1) domain. The settings on record: recombinant JH1 domain 0.2 nM, 15 μM ATP, JAK3-974 peptide, mean, read-out: JAK2 biochem IC50 (nM) Mean. A digest of the protocol:
as §1

Experiment [3] addresses human JAK1 catalytic kinase (JH1) domain (Homo sapiens (Human), UniProt P23458). In words: ADP-Glo Kinase Assay, recombinant JAK1 catalytic kinase (JH1) domain. The settings on record: recombinant JH1 domain 4 nM, 35 μM ATP, JAK3-342 peptide, mean, read-out: JAK1 biochem IC50 (nM) Mean. The method, boiled down:
as §1

Experiment [4] has as its target human TYK2 catalytic kinase (JH1) domain (Homo sapiens (Human), UniProt P29597). The experiment can be described thus: ADP-Glo Kinase Assay, recombinant TYK2 catalytic kinase (JH1) domain. The settings on record: recombinant JH1 domain 2 nM, 10 μM ATP, JAK3-974 peptide, mean, read-out: TYK2 biochem IC50 (nM) Mean. A digest of the protocol:
as §1

human JAK1 catalytic kinase (JH1) domain, sequence (P23458 875-1153): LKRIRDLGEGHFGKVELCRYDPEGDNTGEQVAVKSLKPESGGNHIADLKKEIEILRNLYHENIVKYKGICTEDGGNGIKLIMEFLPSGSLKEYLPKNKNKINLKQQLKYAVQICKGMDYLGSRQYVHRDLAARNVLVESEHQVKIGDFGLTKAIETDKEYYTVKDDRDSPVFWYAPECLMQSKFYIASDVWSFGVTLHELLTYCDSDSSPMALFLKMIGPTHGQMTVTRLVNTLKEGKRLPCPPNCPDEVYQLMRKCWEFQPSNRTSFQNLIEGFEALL
human JAK2 catalytic kinase (JH1) domain, sequence (O60674 849-1124): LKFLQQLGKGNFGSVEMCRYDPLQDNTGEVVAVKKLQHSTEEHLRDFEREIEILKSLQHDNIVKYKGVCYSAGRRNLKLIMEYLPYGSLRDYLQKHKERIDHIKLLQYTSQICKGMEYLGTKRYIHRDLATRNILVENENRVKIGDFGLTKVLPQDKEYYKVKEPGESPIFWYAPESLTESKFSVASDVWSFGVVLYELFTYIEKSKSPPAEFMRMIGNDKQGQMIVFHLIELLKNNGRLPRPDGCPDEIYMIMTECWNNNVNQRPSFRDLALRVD
human TYK2 catalytic kinase (JH1) domain, sequence (P29597 897-1176): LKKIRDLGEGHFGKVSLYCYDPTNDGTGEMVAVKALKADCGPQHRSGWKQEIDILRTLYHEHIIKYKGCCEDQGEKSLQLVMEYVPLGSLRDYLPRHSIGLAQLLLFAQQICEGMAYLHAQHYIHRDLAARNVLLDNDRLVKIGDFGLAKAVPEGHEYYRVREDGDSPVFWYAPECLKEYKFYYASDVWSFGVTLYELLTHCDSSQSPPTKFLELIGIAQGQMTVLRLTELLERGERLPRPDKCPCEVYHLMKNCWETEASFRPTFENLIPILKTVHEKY
human JAK3 catalytic kinase (JH1) domain, sequence (P52333 822-1111): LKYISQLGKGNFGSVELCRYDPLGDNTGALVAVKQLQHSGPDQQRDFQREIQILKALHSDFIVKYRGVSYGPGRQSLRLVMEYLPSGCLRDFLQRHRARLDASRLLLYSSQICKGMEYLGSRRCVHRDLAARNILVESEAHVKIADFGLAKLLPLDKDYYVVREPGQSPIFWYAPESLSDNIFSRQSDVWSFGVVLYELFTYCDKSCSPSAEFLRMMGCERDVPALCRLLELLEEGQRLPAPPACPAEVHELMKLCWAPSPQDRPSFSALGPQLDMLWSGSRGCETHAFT

Regarding `Cn1cc(-c2cc3c(N4CC5CCC(C4)N5C(=O)C4CCC4)ncnn3c2)cn1` [Example 67, Cyclobutyl(3-(6-(1-methyl-1H-pyrazol-4-yl)pyrrolo[2,1-f][1,2,4]triazin-4-yl)-3,8-diazabicyclo[3.2.1]octan-8-yl)methanone], the IC50 stood at 4440 nM in experiment [1], 7460 nM in experiment [2], 3230 nM in experiment [3] and 365 nM in experiment [4].
Consider `O=C(C1CC1)N1C2CCC1CN(c1ncnn3cc(-c4cnn(C(F)(F)F)c4)cc13)C2` [Example 154], for which the IC50 in experiment [1] was 10000 nM; in experiment [2] it was 10000 nM; in experiment [3], 2950 nM; in experiment [4], 490 nM.
On to `Cn1cc(-c2cc3c(N4CC5CCC(C4)N5C(=O)C(C)(F)F)ncnn3c2)cn1` [Example 72, 2,2-difluoro-1-(3-(6-(1-methyl-1H-pyrazol-4-yl)pyrrolo[2,1-f][1,2,4]triazin-4-yl)-3,8-diazabicyclo[3.2.1]octan-8-yl)propan-1-one], for which the IC50 amounted to 703 nM in experiment [1], 2340 nM in experiment [2], 759 nM in experiment [3] and 206 nM in experiment [4].
Turning to `O=C([C@@H]1C[C@H]1F)N1C2CCC1CN(c1ccnn3cc(-c4ccnc(F)c4)cc13)C2` [Example 170], the IC50 in experiment [1] is 344 nM; in experiment [2], 36 nM; in experiment [3], 25 nM; in experiment [4] it was 1.2 nM.
In the same order, the values of `O=C(C1CC1)N1C2CCC1CN(c1ncnn3cc(-c4cnn(CF)c4)cc13)C2` [Example 155] are 4000 nM, 5180 nM, 1810 nM and 293 nM.
In the same order, the values of `O=C([C@@H]1C[C@H]1F)N1C2CCC1CN(c1ccnc3[nH]c(C4CCOC4)nc13)C2` (stereo partly drawn) [Example 211, ((1S,2R)-2-fluorocyclopropyl)(3-(2-(tetrahydrofuran-3-yl)-3H-imidazo[4,5-b]pyridin-7-yl)-3,8-diazabicyclo[3.2.1]octan-8-yl)methanone] are 10000 nM, 10000 nM, 5780 nM and 676 nM.
The like results for `Cc1ccc(-c2cc3c(N4CC5CCC(C4)N5C(=O)[C@@H]4C[C@H]4F)ccnn3c2)cn1` [Example 113, ((1S,2R)-2-fluorocyclopropyl)(3-(6-(6-methylpyridin-3-yl)pyrrolo[1,2-b]pyridazin-4-yl)-3,8-diazabicyclo[3.2.1]octan-8-yl)methanone] were, in that order, 672 nM, 56 nM, 69 nM and 3 nM.
For the molecule `O=C([C@@H]1CC1(F)F)N1C2CCC1CN(c1ccnn3cc(C4CC4)cc13)C2` [Example 25, (3-(6-cyclopropylpyrrolo[1,2-b]pyridazin-4-yl)-3,8-diazabicyclo[3.2.1]octan-8-yl)((S)-2,2-difluorocyclopropyl)methanone], the IC50 in experiment [1] was 10000 nM; in experiment [2], 10000 nM; in experiment [3] it was 8060 nM; in experiment [4] it was 662 nM.
Take `N#Cc1cc(-c2cc3c(N4CC5CCC(C4)N5C(=O)[C@@H]4C[C@H]4F)ncnn3c2)ccn1` [Example 95, 4-(4-(8-((1S,2R)-2-fluorocyclopropane-1-carbonyl)-3,8-diazabicyclo[3.2.1]octan-3-yl)pyrrolo[2,1-f][1,2,4]triazin-6-yl)picolinonitrile]: the IC50 worked out at 7940 nM in experiment [1], 942 nM in experiment [2], 741 nM in experiment [3] and 45.5 nM in experiment [4].
Turning to `O=C(C1CCC1)N1C2CCC1CN(c1ncnn3cc(-c4cnn(C(F)F)c4)cc13)C2` [Example 51, cyclobutyl(3-(6-(1-(difluoromethyl)-1H-pyrazol-4-yl)pyrrolo[2,1-f][1,2,4]triazin-4-yl)-3,8-diazabicyclo[3.2.1]octan-8-yl)methanone], the IC50 in experiment [1] came out at 7870 nM; in experiment [2], 9130 nM; in experiment [3], 2830 nM; in experiment [4], 407 nM.
In the case of `Cn1cc(-c2cc3c(N4CC5CCC(C4)N5C(=O)C4CC4)ncnc3[nH]2)cn1` [Example 220, cyclopropyl(3-(6-(1-methyl-1H-pyrazol-4-yl)-7H-pyrrolo[2,3-d]pyrimidin-4-yl)-3,8-diazabicyclo[3.2.1]octan-8-yl)methanone], the IC50 in experiment [1] was determined as 501 nM; in experiment [2], 690 nM; in experiment [3], 242 nM; in experiment [4], 34 nM.
On to `Cn1cc(-c2cc3c(N4CC5CCC(C4)N5C(=O)[C@@H]4C[C@H]4F)ccnc3[nH]2)c(F)n1` [Example 244, (3-(2-(3-fluoro-1-methyl-1H-pyrazol-4-yl)-1H-pyrrolo[2,3-b]pyridin-4-yl)-3,8-diazabicyclo[3.2.1]octan-8-yl)((1S,2R)-2-fluorocyclopropyl)methanone], for which the IC50 stood at 73 nM in experiment [1], 4 nM in experiment [2], 18 nM in experiment [3] and 0.2 nM in experiment [4].
In the same order, the values of `Cn1cc(-c2cc3c(N4CC5CCC(C4)N5C(=O)C4COC4)ncnn3c2)cn1` [Example 71, (3-(6-(1-methyl-1H-pyrazol-4-yl)pyrrolo[2,1-f][1,2,4]triazin-4-yl)-3,8-diazabicyclo[3.2.1]octan-8-yl)(oxetan-3-yl)methanone] are 10000 nM, 10000 nM, 5320 nM and 911 nM.
`O=C([C@@H]1C[C@H]1F)N1C2CCC1CN(c1ccnn3cc(-c4ccc(C(F)F)nc4)cc13)C2` [Example 116, (3-(6-(6-(difluoromethyl)pyridin-3-yl)pyrrolo[1,2-b]pyridazin-4-yl)-3,8-diazabicyclo[3.2.1]octan-8-yl)((1S,2R)-2-fluorocyclopropyl)methanone]: the IC50 amounted to 847 nM in experiment [1], 41 nM in experiment [2], 44 nM in experiment [3] and 2.6 nM in experiment [4].
The like results for `O=C(C1CC1)N1C2CCC1CN(c1ncnn3cc(-c4ccccc4F)cc13)C2` [Example 182] were, in that order, 8600 nM, 10000 nM, 3660 nM and 704 nM.
The like results for `Cn1cc(-c2nc3c(N4CC5CCC(C4)N5C(=O)[C@@H]4CC4(F)F)ccnc3[nH]2)cn1` [Example 201, ((S)-2,2-difluorocyclopropyl)(3-(2-(1-methyl-1H-pyrazol-4-yl)-3H-imidazo[4,5-b]pyridin-7-yl)-3,8-diazabicyclo[3.2.1]octan-8-yl)methanone] were, in that order, 164 nM, 9 nM, 14 nM and 1.5 nM.
In the same order, the values of `Cn1cc(-c2cc3c(N4CC5CCC(C4)N5C(=O)[C@@H]4C[C@H]4F)ncnn3c2)cn1` [Example 2, ((1S,2R)-2-fluorocyclopropyl)(3-(6-(1-methyl-1H-pyrazol-4-yl)pyrrolo[2,1-f][1,2,4]triazin-4-yl)-3,8-diazabicyclo[3.2.1]octan-8-yl)methanone] are 820 nM, 292 nM, 324 nM and 4.7 nM.
Turning to `O=C([C@@H]1C[C@H]1CO)N1C2CCC1CN(c1ncnn3cc(-c4cnn(C(F)F)c4)cc13)C2` (single isomer, unassigned) [Example 40], the 50% inhibitory concentration (IC50) in experiment [1] is no less than 10000 nM; in experiment [2] it was 9400 nM; in experiment [3] it was 5120 nM; in experiment [4] it was 289 nM.
In the case of `O=C([C@@H]1CC1(F)F)N1C2CCC1CN(c1ccnn3cc(-c4cnn(C(F)(F)F)c4)cc13)C2` [Example 19, ((S)-2,2-difluorocyclopropyl)(3-(6-(1-(trifluoromethyl)-1H-pyrazol-4-yl)pyrrolo[1,2-b]pyridazin-4-yl)-3,8-diazabicyclo[3.2.1]octan-8-yl)methanone], the IC50 in experiment [1] stood at 518 nM; in experiment [2], 29 nM; in experiment [3] it was 34 nM; in experiment [4], 2.1 nM.
As to `Cc1ccc(-c2cc3c(N4CC5CCC(C4)N5C(=O)[C@@H]4C[C@H]4F)ccnn3c2)nn1` [Example 125, ((1S,2R)-2-fluorocyclopropyl)(3-(6-(6-methylpyridazin-3-yl)pyrrolo[1,2-b]pyridazin-4-yl)-3,8-diazabicyclo[3.2.1]octan-8-yl)methanone], the IC50 in experiment [1] amounted to 1010 nM; in experiment [2] it was 49 nM; in experiment [3], 236 nM; in experiment [4] it was 8.8 nM.
As to `O=C([C@@H]1C[C@H]1F)N1C2CCC1CN(c1ccnn3cc(-c4ccc(C(F)(F)F)nc4)cc13)C2` [Example 117, ((1S,2R)-2-fluorocyclopropyl)(3-(6-(6-(trifluoromethyl)pyridin-3-yl)pyrrolo[1,2-b]pyridazin-4-yl)-3,8-diazabicyclo[3.2.1]octan-8-yl)methanone], the IC50 in experiment [1] stood at 878 nM; in experiment [2], 64 nM; in experiment [3] it was 67 nM; in experiment [4], 5.2 nM.
In the same order, the values of `Cn1cc(-c2cc3c(N4CC5CCC(C4)N5C(=O)[C@H]4C[C@@H]4F)ncnn3c2)cn1` [Example 6, ((1R,2S)-2-fluorocyclopropyl)(3-(6-(1-methyl-1H-pyrazol-4-yl)pyrrolo[2,1-f][1,2,4]triazin-4-yl)-3,8-diazabicyclo[3.2.1]octan-8-yl)methanone] are 827 nM, 2260 nM, 682 nM and 133 nM.
